{
  "source": "patent US9056844B2",
  "about": "“4-substituted-3-benzyloxy-bicyclo[3.1.0]hexane compounds as mGluR 2/3 antagonists” (Eli Lilly and Company, priority 2010, dated 2015)",
  "key": {"[1]": {"target": "serotonin receptor 5-HT2A (Homo sapiens, UniProt P28223)", "sequence (P28223 whole entry)": "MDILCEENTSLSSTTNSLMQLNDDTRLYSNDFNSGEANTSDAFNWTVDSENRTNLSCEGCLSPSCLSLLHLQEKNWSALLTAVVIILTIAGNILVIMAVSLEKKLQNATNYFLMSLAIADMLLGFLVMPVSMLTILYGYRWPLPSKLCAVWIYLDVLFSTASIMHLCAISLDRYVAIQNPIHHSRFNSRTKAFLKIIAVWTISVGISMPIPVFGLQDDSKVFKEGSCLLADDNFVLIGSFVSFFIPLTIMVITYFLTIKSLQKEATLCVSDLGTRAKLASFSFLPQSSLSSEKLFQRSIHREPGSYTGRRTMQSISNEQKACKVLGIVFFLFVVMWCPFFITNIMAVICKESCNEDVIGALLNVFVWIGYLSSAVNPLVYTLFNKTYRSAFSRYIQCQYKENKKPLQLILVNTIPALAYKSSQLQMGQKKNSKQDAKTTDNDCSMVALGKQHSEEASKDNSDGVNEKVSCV", "assay": "Off-target activity, known assay methods: 5-HT2A", "from_the_text": "(§1) Further, certain compounds of the present invention show a lack of significant activity at other physiologically important receptors such as, but not limited to, the hERG channel, serotonin receptors (specifically 5-HT2A and 5-HT2B), muscarinic receptors (specifically M2), and iGluR receptors (specifically iGluR5)."}, "[2]": {"target": "serotonin receptor 5-HT2B (Homo sapiens, UniProt P41595)", "sequence (P41595 whole entry)": "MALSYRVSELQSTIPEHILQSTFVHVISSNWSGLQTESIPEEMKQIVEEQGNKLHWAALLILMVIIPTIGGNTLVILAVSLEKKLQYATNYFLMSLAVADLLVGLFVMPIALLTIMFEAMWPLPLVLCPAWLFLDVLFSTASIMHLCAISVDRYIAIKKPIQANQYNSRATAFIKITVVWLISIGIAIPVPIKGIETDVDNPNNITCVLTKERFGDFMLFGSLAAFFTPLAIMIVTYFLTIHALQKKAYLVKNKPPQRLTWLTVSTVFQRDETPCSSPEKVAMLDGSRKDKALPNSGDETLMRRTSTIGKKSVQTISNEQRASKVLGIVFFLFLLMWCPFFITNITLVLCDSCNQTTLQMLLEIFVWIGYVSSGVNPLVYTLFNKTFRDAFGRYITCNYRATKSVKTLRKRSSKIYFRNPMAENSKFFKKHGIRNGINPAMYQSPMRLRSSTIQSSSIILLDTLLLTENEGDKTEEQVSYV", "assay": "Off-target activity, known assay methods: 5-HT2B", "from_the_text": "as §1"}, "[3]": {"target": "hERG channel (Homo sapiens, UniProt Q12809)", "sequence (Q12809 whole entry)": "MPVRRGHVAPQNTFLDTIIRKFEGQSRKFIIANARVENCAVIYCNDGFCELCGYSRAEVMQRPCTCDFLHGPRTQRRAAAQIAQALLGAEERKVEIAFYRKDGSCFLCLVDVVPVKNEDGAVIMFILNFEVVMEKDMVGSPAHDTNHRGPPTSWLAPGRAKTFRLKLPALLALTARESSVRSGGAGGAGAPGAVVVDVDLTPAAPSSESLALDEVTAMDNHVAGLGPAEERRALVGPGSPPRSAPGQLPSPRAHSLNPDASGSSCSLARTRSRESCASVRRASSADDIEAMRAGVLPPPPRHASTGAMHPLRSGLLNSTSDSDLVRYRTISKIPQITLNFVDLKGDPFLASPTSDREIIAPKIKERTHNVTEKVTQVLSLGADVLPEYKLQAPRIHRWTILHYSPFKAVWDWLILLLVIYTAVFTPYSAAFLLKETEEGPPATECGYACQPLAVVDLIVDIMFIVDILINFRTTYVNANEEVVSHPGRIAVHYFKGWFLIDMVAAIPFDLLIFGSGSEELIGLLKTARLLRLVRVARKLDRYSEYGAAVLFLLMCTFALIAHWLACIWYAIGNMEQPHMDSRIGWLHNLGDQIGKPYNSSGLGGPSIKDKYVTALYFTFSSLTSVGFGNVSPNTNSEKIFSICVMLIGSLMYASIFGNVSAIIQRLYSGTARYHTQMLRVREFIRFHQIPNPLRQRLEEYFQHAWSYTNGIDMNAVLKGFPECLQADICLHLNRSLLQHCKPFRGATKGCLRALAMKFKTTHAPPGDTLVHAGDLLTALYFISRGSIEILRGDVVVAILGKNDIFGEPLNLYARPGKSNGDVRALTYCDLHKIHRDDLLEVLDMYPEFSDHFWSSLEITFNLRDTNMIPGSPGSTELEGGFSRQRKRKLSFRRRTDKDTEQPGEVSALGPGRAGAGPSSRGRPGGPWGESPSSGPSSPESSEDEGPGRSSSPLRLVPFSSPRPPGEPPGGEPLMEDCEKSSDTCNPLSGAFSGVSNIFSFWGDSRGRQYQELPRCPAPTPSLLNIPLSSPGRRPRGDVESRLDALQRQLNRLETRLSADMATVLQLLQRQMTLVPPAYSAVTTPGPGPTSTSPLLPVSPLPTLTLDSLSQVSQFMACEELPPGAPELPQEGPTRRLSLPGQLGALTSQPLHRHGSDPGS", "assay": "Off-target activity, known assay methods: hERG", "from_the_text": "as §1"}, "[4]": {"target": "iGluR5 (Homo sapiens, UniProt P39086)", "sequence (P39086 31-918)": "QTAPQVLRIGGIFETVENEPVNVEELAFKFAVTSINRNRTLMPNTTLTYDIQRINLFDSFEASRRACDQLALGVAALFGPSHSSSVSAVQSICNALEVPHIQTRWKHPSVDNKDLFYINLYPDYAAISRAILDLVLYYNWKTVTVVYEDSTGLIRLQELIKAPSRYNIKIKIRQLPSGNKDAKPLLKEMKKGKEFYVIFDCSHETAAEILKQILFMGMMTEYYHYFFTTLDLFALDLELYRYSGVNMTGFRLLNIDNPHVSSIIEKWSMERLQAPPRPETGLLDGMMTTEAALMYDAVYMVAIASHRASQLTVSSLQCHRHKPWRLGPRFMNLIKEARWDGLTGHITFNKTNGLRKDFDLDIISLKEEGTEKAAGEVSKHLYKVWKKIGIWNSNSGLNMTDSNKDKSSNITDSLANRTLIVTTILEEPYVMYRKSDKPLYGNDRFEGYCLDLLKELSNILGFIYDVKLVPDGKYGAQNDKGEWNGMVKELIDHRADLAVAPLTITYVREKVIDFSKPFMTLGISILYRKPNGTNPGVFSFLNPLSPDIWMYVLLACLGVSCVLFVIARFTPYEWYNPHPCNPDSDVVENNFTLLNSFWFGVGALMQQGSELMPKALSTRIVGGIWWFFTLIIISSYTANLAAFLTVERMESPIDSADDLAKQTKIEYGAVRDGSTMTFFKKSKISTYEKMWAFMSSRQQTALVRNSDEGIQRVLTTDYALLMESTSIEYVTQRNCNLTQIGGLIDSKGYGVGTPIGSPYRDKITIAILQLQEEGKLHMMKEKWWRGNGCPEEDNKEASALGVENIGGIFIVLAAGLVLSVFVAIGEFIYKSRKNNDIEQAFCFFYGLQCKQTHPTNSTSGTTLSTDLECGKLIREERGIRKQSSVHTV", "assay": "Off-target activity, known assay methods: iGluR5", "from_the_text": "as §1"}, "[5]": {"tested_on": "mGlu2+/+ mice", "assay": "mFST in mGlu2+/+ littermate mice", "assay_type": "in vivo, mouse", "settings": "10 mg/kg, i.p., 30 min prior"}, "[6]": {"target": "T1, muscarinic receptor M2 (Homo sapiens, UniProt P08172)", "T1 sequence (P08172 1-466)": "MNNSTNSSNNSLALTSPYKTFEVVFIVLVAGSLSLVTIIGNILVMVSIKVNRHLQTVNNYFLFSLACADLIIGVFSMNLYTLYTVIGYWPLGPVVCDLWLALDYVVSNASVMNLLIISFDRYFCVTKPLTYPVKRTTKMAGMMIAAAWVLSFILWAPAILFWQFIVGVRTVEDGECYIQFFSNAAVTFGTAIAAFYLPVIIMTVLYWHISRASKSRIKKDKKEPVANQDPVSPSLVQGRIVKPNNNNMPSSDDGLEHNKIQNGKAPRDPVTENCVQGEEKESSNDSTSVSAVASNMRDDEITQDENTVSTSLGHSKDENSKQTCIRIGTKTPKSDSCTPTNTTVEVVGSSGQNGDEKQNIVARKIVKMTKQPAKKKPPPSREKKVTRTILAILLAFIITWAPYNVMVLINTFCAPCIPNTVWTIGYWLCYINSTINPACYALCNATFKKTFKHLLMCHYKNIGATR", "assay": "Off-target activity, known assay methods: M2", "from_the_text": "as §1"}},
  "data": [
    {"smiles": "N[C@]1(C(=O)O)[C@@H]2[C@@H](C(=O)O)[C@@H]2[C@H](O)[C@H]1OCc1ccc(Cl)c(Cl)c1", "note": "[Example 1, (1S,2R,3S,4S,5R,6R)-2-Amino-3-[(3,4-dichlorobenzyl)oxy]-4-hydroxybicyclo[3.1.0]hexane-2,6-dicarboxylic acid]", "values": [
      {"measurement": "activity at 5-HT2A", "setting": "[1]", "result": "no appreciable activity"},
      {"measurement": "activity at 5-HT2B", "setting": "[2]", "result": "no appreciable activity"},
      {"measurement": "activity at the hERG channel", "setting": "[3]", "result": "no appreciable activity"},
      {"measurement": "activity at iGluR5", "setting": "[4]", "result": "no appreciable activity"},
      {"measurement": "immobility time", "setting": "[5]", "result": "significantly decrease immobility time"},
      {"measurement": "activity at M2", "setting": "[6]", "result": "no appreciable activity"}
    ]}
  ]
}
